# Tests used:
# soybean = experiment: Test B pre/postemergence soybean; format: in vivo, Glycine max
# Procedure, shortened: (§1)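 Response is a visual 0-to-10 score relative to untreated plants, where 0 means no effect and 10 means complete control, taken twelve to sixteen days after application. Treatments went onto soil at planting and onto foliage of 1- to 4-leaf plants, using a surfactant-containing non-phytotoxic solvent.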
# velvetleaf = experiment: Test B pre/postemergence velvetleaf; format: in vivo, Abutilon theophrasti
# Procedure, shortened: as §1
# rape = experiment: Test B pre/postemergence rape; format: in vivo, Brassica napus
# Procedure, shortened: as §1
# purple nutsedge = experiment: Test B pre/postemergence purple nutsedge; format: in vivo, Cyperus rotundus
# Procedure, shortened: as §1
# morningglory = experiment: Test B pre/postemergence morningglory; format: in vivo, Ipomoea hederacea
# Procedure, shortened: as §1
# wild oat = experiment: Test B pre/postemergence wild oat; format: in vivo, Avena fatua
# Procedure, shortened: as §1
# duck salad = experiment: Test B flood test duck salad; format: in vivo, Heteranthera limosa
# Procedure, shortened: (§2)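 Plants were grown to the 2-leaf stage before treatment with test chemical, then held in a greenhouse for twelve to sixteen days. Injury was visually rated against untreated controls on a 0–10 scale, where 0 is no effect and 10 is complete control.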
# sugar beet = experiment: Test B pre/postemergence sugar beet; format: in vivo, Beta vulgaris
# Procedure, shortened: as §1
# corn = experiment: Test B pre/postemergence corn; format: in vivo, Zea mays
# Procedure, shortened: as §1
# giant foxtail = experiment: Test B pre/postemergence giant foxtail; format: in vivo, Setaria faberii
# Procedure, shortened: as §1
# pigweed = experiment: Test B pre/postemergence pigweed; format: in vivo, Amaranthus retroflexus
# Procedure, shortened: as §1
# rice = experiment: Test B flood test rice; format: in vivo, Oryza sativa
# Procedure, shortened: as §2
# wheat = experiment: Test B pre/postemergence wheat; format: in vivo, Triticum aestivum
# Procedure, shortened: as §1
# cocklebur = experiment: Test B pre/postemergence cocklebur; format: in vivo, Xanthium strumarium
# Procedure, shortened: as §1
# bamyardgrass = experiment: Test B flood test barnyardgrass; format: in vivo, Echinochloa crus-galli
# Procedure, shortened: as §2
# crabgrass = experiment: Test B pre/postemergence crabgrass; format: in vivo, Digitaria sanguinalis
# Procedure, shortened: as §1
# [1] = Preemergence, Rate 62 g/ha, scale of 0 to 10 where 0 is no effect and 10 is complete control
# [2] = Preemergence, Rate 250 g/ha, scale of 0 to 10 where 0 is no effect and 10 is complete control
# [3] = Preemergence, Rate 500 g/ha, scale of 0 to 10 where 0 is no effect and 10 is complete control
# [4] = Rate 125 g/ha, Postemergence, scale of 0 to 10 where 0 is no effect and 10 is complete control
# [5] = Rate 125 g/ha, Preemergence, scale of 0 to 10 where 0 is no effect and 10 is complete control
# [6] = Rate 250 g/ha, Postemergence, scale of 0 to 10 where 0 is no effect and 10 is complete control
# [7] = Rate 500 g/ha, Postemergence, scale 0 to 10, 0 no effect, 10 complete control
# [8] = Rate 62 g/ha, headed Pre-emergence (flood test species), scale 0 to 10 (0 no effect, 10 complete control)
# [9] = Rate 125 g/ha, Pre-emergence, flood test species, scale 0 to 10 where 0 is no effect and 10 is complete control
# [10] = Rate 250 g/ha, Pre-emergence, flood-test species, scale 0 to 10, 0 is no effect, 10 is complete control
# [11] = Rate 500 g/ha, Pre-emergence, flood test species, scale 0 to 10 (0 no effect, 10 complete control)
# [12] = Rate 62 g/ha, Postemergence, scale of 0 to 10 where 0 is no effect and 10 is complete control
compound,measurement,setting,value
Cc1ccccc1-n1c(=O)on(C(=O)N(c2cccc(F)c2)C(C)C)c1=O [Compound 269],Soybean plant response rating,soybean; [1],0
same,Soybean plant response rating,soybean; [2],0
same,"Plant response rating, Soybean",soybean; [3],4
same,Soybean plant response rating,soybean; [4],1
same,Soybean plant response rating,soybean; [5],0
same,"Plant response rating, Soybean",soybean; [6],3
same,Soybean plant response rating,soybean; [7],3
same,Velvetleaf plant response rating,velvetleaf; [1],0
same,Velvetleaf plant response rating,velvetleaf; [2],0
same,"Plant response rating, Velvetleaf",velvetleaf; [3],0
same,Velvetleaf plant response rating,velvetleaf; [4],0
same,Velvetleaf plant response rating,velvetleaf; [5],0
same,"Plant response rating, Velvetleaf",velvetleaf; [6],3
same,Velvetleaf plant response rating,velvetleaf; [7],3
same,Rape plant response rating,rape; [1],0
same,Rape plant response rating,rape; [2],0
same,"Plant response rating, Rape",rape; [3],0
same,Rape plant response rating,rape; [4],0
same,Rape plant response rating,rape; [5],0
same,"Plant response rating, Rape",rape; [6],0
same,Rape plant response rating,rape; [7],0
same,Nutsedge plant response rating,purple nutsedge; [1],0
same,Nutsedge plant response rating,purple nutsedge; [4],0
same,Nutsedge plant response rating,purple nutsedge; [5],0
same,"Plant response rating, Nutsedge",purple nutsedge; [6],0
same,Nutsedge plant response rating,purple nutsedge; [7],0
same,Morningglory plant response rating,morningglory; [1],0
same,Morningglory plant response rating,morningglory; [2],0
same,"Plant response rating, Morningglory",morningglory; [3],0
same,Morningglory plant response rating,morningglory; [4],3
same,Morningglory plant response rating,morningglory; [5],0
same,"Plant response rating, Morningglory",morningglory; [6],5
same,Morningglory plant response rating,morningglory; [7],7
same,Wild oats plant response rating,wild oat; [1],0
same,Wild oats plant response rating,wild oat; [2],2
same,"Plant response rating, Wild oats",wild oat; [3],4
same,Wild oats plant response rating,wild oat; [4],0
same,"Plant response rating, Wild oats",wild oat; [6],0
same,Wild oats plant response rating,wild oat; [7],3
same,Ducksalad plant response rating,duck salad; [8],0
same,Ducksalad plant response rating,duck salad; [9],0
same,Ducksalad plant response rating,duck salad; [10],0
same,Ducksalad plant response rating,duck salad; [11],0
same,Sugarbeets plant response rating,sugar beet; [1],0
same,Sugarbeets plant response rating,sugar beet; [2],0
same,"Plant response rating, Sugarbeets",sugar beet; [3],4
same,Sugarbeets plant response rating,sugar beet; [4],0
same,Sugarbeets plant response rating,sugar beet; [5],0
same,"Plant response rating, Sugarbeets",sugar beet; [6],0
same,Sugarbeets plant response rating,sugar beet; [7],0
same,Corn plant response rating,corn; [1],0
same,Corn plant response rating,corn; [2],0
same,"Plant response rating, Corn",corn; [3],0
same,Corn plant response rating,corn; [12],0
same,Corn plant response rating,corn; [4],0
same,Corn plant response rating,corn; [5],0
same,"Plant response rating, Corn",corn; [6],0
same,Corn plant response rating,corn; [7],0
same,Giant foxtail plant response rating,giant foxtail; [1],3
same,Giant foxtail plant response rating,giant foxtail; [2],10
same,Giant foxtail plant response rating,giant foxtail; [4],0
same,Giant foxtail plant response rating,giant foxtail; [5],6
same,"Plant response rating, Giant foxtail",giant foxtail; [6],0
same,Giant foxtail plant response rating,giant foxtail; [7],2
same,Redroot pigweed plant response rating,pigweed; [1],0
same,Redroot pigweed plant response rating,pigweed; [2],4
same,"Plant response rating, Redroot pigweed",pigweed; [3],4
same,Redroot pigweed plant response rating,pigweed; [4],4
same,Redroot pigweed plant response rating,pigweed; [5],0
same,"Plant response rating, Redroot pigweed",pigweed; [6],5
same,Redroot pigweed plant response rating,pigweed; [7],6
same,Rice plant response rating,rice; [8],0
same,Rice plant response rating,rice; [9],0
same,Rice plant response rating,rice; [10],0
same,Rice plant response rating,rice; [11],0
same,Wheat plant response rating,wheat; [1],0
same,Wheat plant response rating,wheat; [2],0
same,"Plant response rating, Wheat",wheat; [3],0
same,Wheat plant response rating,wheat; [4],0
same,Wheat plant response rating,wheat; [5],0
same,"Plant response rating, Wheat",wheat; [6],2
same,Wheat plant response rating,wheat; [7],4
same,Cocklebur plant response rating,cocklebur; [1],0
same,Cocklebur plant response rating,cocklebur; [2],0
same,"Plant response rating, Cocklebur",cocklebur; [3],0
same,Cocklebur plant response rating,cocklebur; [12],0
same,"Plant response rating, Cocklebur",cocklebur; [6],1
same,Cocklebur plant response rating,cocklebur; [7],2
same,Barnyardgrass plant response rating,bamyardgrass; [8],0
same,Barnyardgrass plant response rating,bamyardgrass; [9],0
same,Barnyardgrass plant response rating,bamyardgrass; [10],0
same,Barnyardgrass plant response rating,bamyardgrass; [11],0
same,Crabgrass plant response rating,crabgrass; [1],0
same,Crabgrass plant response rating,crabgrass; [2],3
same,"Plant response rating, Crabgrass",crabgrass; [3],6
same,Crabgrass plant response rating,crabgrass; [4],0
same,Crabgrass plant response rating,crabgrass; [5],2
same,"Plant response rating, Crabgrass",crabgrass; [6],0
same,Crabgrass plant response rating,crabgrass; [7],1
